Measurements taken from patent publication US20100009934A1, “BETA ADRENERGIC RECEPTOR AGONISTS FOR THE TREATMENT OF B-CELL PROLIFERATIVE DISORDERS” (CombinatoRx, Incorporated, priority 2008, published 2010).
Read-outs that look alike come from different tables or passages of the source.

Experiments:
[1] = test system: MM.1S cells; assay: Annexin V / propidium iodide apoptosis assay, MM.1S; format: cell-based, human; settings: 0.3 nM salmeterol, 72 hours (FIG. 2)
Protocol: Effects on cell viability were determined by measuring the percent of cells that were annexin V positive (an early marker for apoptosis) and by measuring the percent of cells propidium iodide (PI) positive, an indicator that cellular membranes are compromised and a marker of cell death.

[2] = test system: Human Multiple Myeloma Cells (MM.1S); assay: Anti-proliferation assay (ATPLite, 72 hours), MM.1S
[3] = test system: RPMI-8226 multiple myeloma (MM) xenograft; settings: Day 19; 10 mg/kg salmeterol, 0.5 mg/kg bortezomib, or both
Protocol: Dexamethasone was administered by intraperitoneal (IP) injection daily for thirty-six treatments (QD×36). Bortezomib was injected intravenously (IV) every third day for six treatments (Q3D×6).
(§1) Group 1—Vehicle (90% PBS+10% EtOH)
Significant endpoints included mean tumor growth inhibition (TGI) or regression, animal weight loss, and potential toxicity. […] Animals were implanted with cancer cells harvested from tissue culture and allowed to establish tumors in SCID mice. Treatment initiated when the mean tumor volume reached 137 mm^3 in size.

[4] = test system: MM.1S cells; assay: Annexin V/PI FACS assay of control MM.1S and cells cultured one month with salmeterol or salbutamol; format: cell-based, human; settings: 250 pM salmeterol
Protocol: Forty eight hours later, the percent of cells positive for Annexin V and propidium iodide (PI) was determined using FACS (FIG. 5).

[5] = test system: Human Multiple Myeloma Cells (MM.1S); assay: cells; settings: MM1.S
[6] = test system: multiple myeloma tumor cells from patients; assay: MTT cell viability assay, multiple myeloma patient tumor cells; settings: Homo sapiens, 48 h
Text: Tumor cells were obtained via bone marrow aspirates and affinity selected using CD138-linked magnetic beads.

[7] = test system: Human Multiple Myeloma Cells (EJM); assay: Anti-proliferation assay (ATPLite, 72 hours), EJM; settings: DEX μM r7-r15: 2.03, 0.675, 0.225, 0.075, 0.025, 0.00834, 0.00278, 0.00093, 0
[8] = test system: Diffuse Large B-Cell Lymphoma Cell Line OCI-Ly10; assay: Anti-proliferation assay (ATPLite, 72 hours), OCI-ly10; format: cell-based; settings: DEX μM r7-r15: 0.101, 0.033666667, 0.011222222, 0.003740741, 0.001246914, 0.000415638, 0.000138546, 0.000046182, 0
Text: Combinations were ranked initially by Additivity Excess Volume, which is defined as ADD Volume=ΣCX, CY (Idata−ILoewe), where ILoewe(CX, CY) is the inhibition that satisfies (CX/ECX)+(CY/ECY)=1, and ECX,Y are the effective concentrations at ILoewe for the single agent curves.

[9] = test system: Human Multiple Myeloma Cells (MM.1S); settings: 10 ng/ml IL-6 vs no IL-6 (Tables 52 and 53)
[10] = test system: Human Multiple Myeloma Cells (MM.1S) cultured in the presence of BAR agonist for one month; assay: Antiproliferative activity on MM.1S cultured one month in the presence of salmeterol or salbutamol; format: cell-based; settings: for percent inhibition of cell proliferation: MM.1S cultured in Salmeterol for one month (final 64 nM), DEX (μM): 2.0, 0.666, 0.23, 0.074, 0.024, 0.0082, 0.00274, 0.0009, 0
Text: A recurrent problem in cancer therapy is that prolonged exposure of tumor cells to chemotherapeutic agents can generate cells resistant to agents that initially have antiproliferative or cell killing activity. […] Cells cultured for one month in the presence of BAR agonist were washed to remove drug and put into 384 well plates for 9×9 dose matrix combination screening with BAR agonists and dexamethasone.

[11] = test system: human multiple myeloma xenografts (MM1S); assay: MM.1S xenograft model in SCID mice; format: in vivo, mouse; settings: Dex 1 mg/kg or salmeterol 10 mg/kg, subcutaneous daily
Protocol: The human multiple myeloma cell line MM1S was injected subcutaneously into the flanks of SCID mice. Five days following the injection of MM1S cells, animals were randomized into the following four treatment groups (n=6-7) based on tumor size.
as §1
The prepared test, positive, and negative control substances were administered via subcutaneous injection daily for up to 85 Days. During the treatment period, tumor volume and animal body weights were measured 3 times per week (Monday, Wednesday and Friday). The animals were removed from the study if there was overall poor body condition, tumor volume above 3000 mm^3, body weight loss greater than or equal to 20% or ulcerated tumors.
The slope of the tumor volume growth of each animal was calculated from the initial study day until the day each animal was removed from the study. From these slopes the mean change in tumor volume per study day was calculated.

[12] = test system: RPMI-8226 cells; settings: 2 nM salmeterol for 5 hours, soft agar, three weeks; 740 colonies without drugs
Protocol: The effect of BAR agonists on cells grown in soft agar was also determined. This approach allows the measurement of long term cell viability after single agent or combination treatment. […] Cells were washed and plated in soft agar. After three weeks colonies were counted to determine cell viability.

[13] = Homo sapiens, MM1.S, read-out: percent inhibition of cell proliferation
[14] = read-out: percent inhibition of cell proliferation, +10 ng/ml IL-6, Salmeterol […], DEX (μM) by row: r9 0.15, r10 0.076, r11 0.038, r12 0.019, r13 0.0096, r14 0
[15] = read-out: percent inhibition of cell proliferation, salmeterol […], 10 ng/mL IL-6
[16] = read-out: percent inhibition of cell proliferation, salmeterol […], no IL-6
[17] = read-out: Reduction in Cell Viability

OCc1cc(C(O)CNCCCCCCOCCCCc2ccccc2)ccc1O (stereo not drawn) [salmeterol]
induction of MM.1S cell apoptosis [1]: ~40%
inhibition at 9.1 pM [2, 13]: 4.9%
inhibition at 27 pM [2, 13]: 7.1%
inhibition at 80 pM [2, 13]: 25%
inhibition at 0.02 µM [2, 13]: 59%
percent inhibition of cell proliferation ([2]; SAHA 0 μM (single agent), Salmeterol (nM) by row: r7 0.011, r8 0.0036, r9 0.0012, r10 0.0004, r11 0.00013, r12 0.000045): 70%
Antiproliferative Activity ([2]; Salmeterol 0.00000506 μM, BORT μM r7-r15: 0.0405, 0.0203, 0.0101, 0.00506, 0.00253, 0.00127, 0.000633, 0.000316, 0): 16.9%
tumor growth inhibition (TGI) [3]: 37%
sensitivity (Annexin V/PI) ([4]; cells treated for one month with salmeterol or salbutamol, 48 hours): not sensitive
Annexin V/PI+ cells ([4]; control cells, 48 hours (FIG. 5)): 20%
inhibition at 32 pM [5, 14]: 22%
inhibition at […] [5, 14]: 52%
inhibition at 32 pM ([5]; read-out: percent inhibition of cell proliferation, no IL-6, Salmeterol […], DEX (μM) by row: r9 0.15, r10 0.076, r11 0.038, r12 0.019, r13 0.0096, r14 0): 21%
inhibition at 100 fM ([5]; read-out: percent inhibition of cell proliferation, salmeterol 0.1 pM, 10 ng/mL IL-6): 19%
inhibition at 100 fM ([5]; read-out: percent inhibition of cell proliferation, salmeterol 0.1 pM, no IL-6): 11%
inhibition at 200 fM ([5]; read-out: percent inhibition of cell proliferation, salmeterol 0.2 pM, 10 ng/mL IL-6): 30%
inhibition at 200 fM ([5]; read-out: percent inhibition of cell proliferation, salmeterol 0.2 pM, no IL-6): 25%
inhibition at 400 fM ([5]; read-out: percent inhibition of cell proliferation, salmeterol 0.4 pM, 10 ng/mL IL-6): 36%
inhibition at 400 fM ([5]; read-out: percent inhibition of cell proliferation, salmeterol 0.4 pM, no IL-6): 30%
inhibition at […] ([5]; read-out: percent inhibition of cell proliferation, salmeterol 160 pM, 10 ng/mL IL-6): 59%
inhibition at […] ([5]; read-out: percent inhibition of cell proliferation, salmeterol 160 pM, no IL-6): 50%
inhibition at […] ([5]; read-out: percent inhibition of cell proliferation, salmeterol 320 pM, 10 ng/mL IL-6): 66%
inhibition at […] ([5]; read-out: percent inhibition of cell proliferation, salmeterol 320 pM, no IL-6): 59%
inhibition at 25 fM [5, 15]: 2.8%
inhibition at 51 fM [5, 15]: 8.6%
inhibition at 810 fM [5, 15]: 54%
inhibition at 25 fM [5, 16]: 5%
inhibition at 51 fM [5, 16]: 6.7%
inhibition at 810 fM [5, 16]: 43%
cytotoxicity at 12.5 pM [6, 17]: -0.2%
cytotoxicity at 25 pM [6, 17]: 12%
cytotoxicity at 50 pM [6, 17]: 13%
cytotoxicity at 0.0001 µM [6, 17]: 35%
cytotoxicity at 0.0002 µM [6, 17]: 40%
cytotoxicity at 0.0004 µM [6, 17]: 38%
cytotoxicity at 0.0008 µM [6, 17]: 44%
cytotoxicity at 0.0004 µM ([6]; read-out: activity (reduction in cell viability)): 38%
viability at 0.001 µM ([6]; read-out: tumor cell viability): 80%
Antiproliferative Activity ([7]; Salmeterol 0.000158 μM): 38.1
Antiproliferative Activity ([7]; Salmeterol 0.000316 μM): 47.7
Antiproliferative Activity ([7]; Salmeterol 0.00506 μM): 47.9
Antiproliferative Activity ([8]; Salmeterol 0.001055 μM): 5.9
Antiproliferative Activity ([8]; Salmeterol 0.003165 μM): 6.3
Antiproliferative Activity ([8]; Salmeterol 0.009494 μM): 9.1
Antiproliferative Activity ([8]; Salmeterol 0.028481 μM): −0.6
Antiproliferative Activity ([8]; Salmeterol 0.085444 μM): 6.3
Antiproliferative Activity ([8]; Salmeterol 0.256333 μM): 27
effect of IL-6 on antiproliferative activity [9]: increased at each concentration tested
percent inhibition of cell proliferation ([10]; Salmeterol 0.00008 μM): 6.1%
percent inhibition of cell proliferation ([10]; Salmeterol 0.02 μM): 5.6%
inhibition of proliferation ([10]; […] salmeterol, cells cultured one month in salmeterol (64 nM), Table 48): 4.1%
single agent sensitivity after culture in 64 nM salmeterol ([10]; cells cultured one month in salmeterol (Table 48)): no longer sensitive
study day by which all animals of the group were removed [11]: ≤ 43 study day
colony number per 10,000 cells plated [12]: 360 colonies
